Source: PubChem BioAssay (NCI)
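96-well plates; 48 h exposure; 5 concentrations. Endpoints by linear interpolation between flanking doses. Not reached: highest tested concentration assigned. GI50: concentration for 50% inhibition of growth. TGI is the concentration that stops growth completely.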

Assays:
Assay in all cases: NCI anticancer screen, dose series, 48 h
HCT-15 colon = tested on: HCT-15 colon
HL-60(TB) leukemia = tested on: HL-60(TB) leukemia
NCI-H23 lung = tested on: NCI-H23 lung
OVCAR-4 ovarian = tested on: OVCAR-4 ovarian
OVCAR-5 ovarian = tested on: OVCAR-5 ovarian
SF-295 CNS = tested on: SF-295 CNS
SW-620 colon = tested on: SW-620 colon
U251 CNS = tested on: U251 CNS
UACC-62 melanoma = tested on: UACC-62 melanoma
SF-268 CNS = tested on: SF-268 CNS
NCI-H522 lung = tested on: NCI-H522 lung

Row | Structure (SMILES) | TGI (HCT-15 colon) | TGI (HL-60(TB) leukemia) | TGI (NCI-H23 lung) | TGI (OVCAR-4 ovarian) | TGI (OVCAR-5 ovarian) | TGI (SF-295 CNS) | TGI (SW-620 colon) | TGI (U251 CNS) | TGI (UACC-62 melanoma) | TGI (SF-268 CNS) | TGI (NCI-H522 lung) | GI50 (HCT-15 colon) | GI50 (HL-60(TB) leukemia) | GI50 (NCI-H23 lung) | GI50 (NCI-H522 lung) | GI50 (OVCAR-4 ovarian) | GI50 (SF-295 CNS) | GI50 (SW-620 colon) | GI50 (U251 CNS) | GI50 (UACC-62 melanoma)
1 | Nc1ccc(N=Nc2ccccc2)cc1 | > 100 µM | > 100 µM | > 100 µM | > 100 µM | > 100 µM | 57.1 µM | > 100 µM | > 100 µM | > 100 µM |  |  |  |  |  |  |  |  |  |  | 
2 | COc1ccc(O)cc1 | 98.4 µM | > 100 µM | > 100 µM | > 100 µM | > 100 µM |  | > 100 µM | > 100 µM | 87.1 µM | > 100 µM |  |  |  |  |  |  |  |  |  | 
3 | NC1=NS(=O)(=O)Nc2nc(-c3ccc(Cl)cc3)c(-c3ccc(Cl)cc3)nc21 |  | > 100 µM | > 100 µM | > 100 µM | > 100 µM | > 100 µM | > 100 µM | > 100 µM | > 100 µM | > 100 µM | > 100 µM |  |  |  |  |  |  |  |  | 
4 | COc1ccc(/C(Cl)=C(\C=O)c2ccc(F)cc2)cc1OC | 83.3 µM | 37.5 µM | 66.6 µM |  |  | 63.2 µM | > 100 µM | 33.6 µM | 61.6 µM | 83.3 µM | 46.5 µM |  |  |  |  |  |  |  |  | 
5 | NC1=NS(=O)(=O)Nc2nc(-c3ccc([N+](=O)[O-])o3)[nH]c21 | 44.1 µM | 4.93 µM | 39.4 µM | 31.3 µM | 35 µM | 29.8 µM | 35.4 µM | 31.7 µM | 30 µM | 38.7 µM | 33.4 µM |  |  |  |  |  |  |  |  | 
6 | Nc1ccc2[nH]c3c(-c4ccccc4)nccc3c2c1 | > 100 µM | 38.2 µM | > 100 µM | > 75.5 µM | > 100 µM | > 100 µM | > 100 µM | > 100 µM | > 80.8 µM | > 100 µM | > 100 µM |  |  |  |  |  |  |  |  | 
7 | O=C(NC(Cc1ccc(I)cc1)C(=O)O)c1ccc(Br)cc1 (stereo unspecified) | > 100 µM | > 100 µM | > 100 µM | > 100 µM | > 100 µM | > 100 µM | > 100 µM | > 100 µM | > 100 µM | > 100 µM | > 100 µM |  |  |  |  |  |  |  |  | 
8 | N=C(N)c1ccc(N=Nc2c(O)ccc3c2[nH]c2ccccc23)cc1 | > 100 µM | > 100 µM | > 100 µM | > 28.5 µM | 83.1 µM | > 84.4 µM | 4.85 µM |  | > 100 µM | > 100 µM | > 100 µM |  |  |  |  |  |  |  |  | 
9 | COC(=O)C1=C(C(=O)OC)SC2(S1)C1=C(CCCC1)SC(C(=O)OC)=C2C(=O)OC | 18.1 µM | > 100 µM | 31.3 µM | 25.3 µM | 25.4 µM | 27.8 µM | 17.1 µM | 19.4 µM | 25.7 µM | 22.3 µM | 4.36 µM |  |  |  |  |  |  |  |  | 
10 | C[C@]12CCc3nc(Nc4ccccc4)sc3C1=CC[C@@H]1[C@@H]2CC[C@]2(C)/C(=N/NC(N)=S)CC[C@@H]12 | 6.25 µM | 17 µM | > 100 µM | > 100 µM |  | 72.3 µM | > 100 µM | > 100 µM | > 100 µM |  | > 100 µM | 1.64 µM | 3.03 µM | 6.15 µM | 3.07 µM | 7.86 µM | 3.75 µM | 3.09 µM | 3.64 µM | 5.85 µM
11 | CCOC(=O)/C1=C(\C)N(c2ccc(C)cc2)C(=O)c2ccccc2C(=O)c2c(OC(C)=O)ccc(OC(C)=O)c21 | 43.9 µM | 54.4 µM | 71.1 µM | 54.2 µM | > 100 µM | 43.2 µM | > 100 µM | 97.9 µM | 42.1 µM | > 100 µM | 74.1 µM |  |  |  |  |  |  |  |  | 
12 | COc1cc(Nc2c3ccccc3nc3ccccc23)ccc1NS(C)(=O)=O |  | 30.1 µM |  | 12.3 µM | 23 µM | 15.2 µM | > 100 µM | 25.2 µM | 26.7 µM | 25.5 µM | 12.9 µM |  |  |  |  |  |  |  |  | 
13 | Cc1ccc(S(=O)(=O)OCC(=O)O)cc1 | > 100 µM | > 100 µM | > 100 µM | > 100 µM | > 100 µM | > 100 µM | > 100 µM | > 100 µM | > 100 µM | > 100 µM | > 100 µM |  |  |  |  |  |  |  |  | 
14 | NC1=NS(=O)(=O)Nc2nc(-c3ccc([N+](=O)[O-])cc3)[nH]c21 | > 100 µM | > 100 µM | > 100 µM | > 100 µM | > 100 µM | > 100 µM | > 100 µM | > 100 µM | > 100 µM | > 100 µM | > 100 µM |  |  |  |  |  |  |  |  | 
